One test deals with T1, CRF2R (Homo sapiens, UniProt Q13324).
T1 sequence (Q13324 1-411): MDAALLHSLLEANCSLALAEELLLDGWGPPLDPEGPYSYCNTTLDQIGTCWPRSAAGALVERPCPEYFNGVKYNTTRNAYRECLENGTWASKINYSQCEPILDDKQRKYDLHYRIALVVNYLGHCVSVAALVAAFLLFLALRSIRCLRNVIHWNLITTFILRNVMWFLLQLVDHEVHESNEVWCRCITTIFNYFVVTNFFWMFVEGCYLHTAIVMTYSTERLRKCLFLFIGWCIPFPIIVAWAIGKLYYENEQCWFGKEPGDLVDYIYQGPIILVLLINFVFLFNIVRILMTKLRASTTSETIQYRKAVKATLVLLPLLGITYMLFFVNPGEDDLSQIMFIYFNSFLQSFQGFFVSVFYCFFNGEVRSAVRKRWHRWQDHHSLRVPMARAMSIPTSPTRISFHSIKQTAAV
Description: CRF2R agonist activation (EC50 / Emax), called comparative CRF binding. To be noted: for Emax: read-out: CRF2R Emax. Format: cell-based. The procedure, abridged: (§1)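 Agonism at each human CRF receptor subtype is inferred from increased cAMP relative to vehicle, using cells expressing that subtype and either lysate cAMP measurement or a cAMP response element reporter.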

In another test the target is T2, CRF1R (Homo sapiens, UniProt P34998).
T2 sequence (P34998 24-415): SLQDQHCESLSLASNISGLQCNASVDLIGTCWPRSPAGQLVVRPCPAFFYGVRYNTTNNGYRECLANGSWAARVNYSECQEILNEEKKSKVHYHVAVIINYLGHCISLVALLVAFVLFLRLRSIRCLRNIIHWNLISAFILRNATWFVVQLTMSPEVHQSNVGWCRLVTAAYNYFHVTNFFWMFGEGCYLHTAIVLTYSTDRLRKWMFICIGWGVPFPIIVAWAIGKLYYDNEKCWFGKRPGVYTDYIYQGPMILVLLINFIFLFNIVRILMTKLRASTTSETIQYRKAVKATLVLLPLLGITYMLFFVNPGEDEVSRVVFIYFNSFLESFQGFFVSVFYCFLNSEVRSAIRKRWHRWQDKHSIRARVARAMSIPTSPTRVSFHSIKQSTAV
Description: CRF1R agonist activation (EC50 / Emax), called comparative CRF binding. Format: cell-based. To be noted: for Emax: read-out: CRF1R Emax. An outline of the steps:
as §1

Read-outs that look alike come from different tables or passages of the source. Peptide text beside a SMILES is read from it.

Take `CC[C@H](C)[C@H](N)C(=O)N[C@H](C(=O)N[C@@H](CC(C)C)C(=O)N[C@@H](CO)C(=O)N[C@@H](CC(C)C)C(=O)N[C@@H](CC(=O)O)C(=O)N[C@H](C(=O)N1CCC[C@H]1C(=O)N[C@H](C(=O)N[C@@H](Cc1c[nH]cn1)C(=O)N[C@@H](CC(C)C)C(=O)N[C@@H](CC(C)C)C(=O)N[C@@H](CCC(N)=O)C(=O)N[C@H](C(=O)N[C@@H](CC(C)C)C(=O)N[C@@H](CC(C)C)C(=O)N[C@@H](CCC(=O)O)C(=O)N[C@@H](CCC(N)=O)C(=O)N[C@@H](C)C(=O)N[C@@H](CCCNC(=N)N)C(=O)N[C@@H](C)C(=O)N[C@@H](CCCNC(=N)N)C(=O)N[C@@H](C)C(=O)N[C@@H](C)C(=O)N[C@@H](CCCNC(=N)N)C(=O)N[C@@H](CCC(=O)O)C(=O)N[C@@H](CCC(N)=O)C(=O)N[C@@H](C)C(=O)N[C@H](C(=O)N[C@H](C(=O)N[C@@H](CC(N)=O)C(=O)N[C@@H](C)C(=O)N[C@@H](CCCNC(=N)N)C(=O)N[C@H](C(=O)N[C@@H](CC(C)C)C(=O)N[C@@H](C)C(=O)N[C@@H](CCCNC(=N)N)C(=O)N[C@H](C(N)=O)C(C)C)[C@@H](C)CC)[C@@H](C)O)[C@@H](C)O)[C@@H](C)CC)[C@@H](C)CC)C(C)C)C(C)C` [compound 371] (H-IVLSLDVPIHLLQILLEQARARAAREQATTNARILARV-NH2; N-terminus assumed): the Emax on CRF2R worked out at 97%; at CRF1R, 22%.
`CC[C@H](C)[C@H](NC(=O)[C@H](CCCNC(=N)N)NC(=O)[C@H](C)NC(=O)[C@H](CC(N)=O)NC(=O)[C@H](CCC(N)=O)NC(=O)[C@H](CCC(=O)O)NC(=O)[C@H](C)NC(=O)[C@H](CCCNC(=N)N)NC(=O)[C@H](CCC(=O)O)NC(=O)[C@H](CCCNC(=N)N)NC(=O)[C@H](CCC(N)=O)NC(=O)[C@H](CO)NC(=O)[C@H](CCC(N)=O)NC(=O)[C@@H](NC(=O)[C@H](CCCCN)NC(=O)[C@H](CCC(=O)O)NC(=O)[C@H](CC(C)C)NC(=O)[C@H](CCC(=O)O)NC(=O)[C@H](CC(C)C)NC(=O)[C@H](CC(C)C)NC(=O)[C@@H](NC(=O)[C@H](CCCNC(=N)N)NC(=O)[C@H](CC(C)C)NC(=O)[C@H](CC(C)C)NC(=O)[C@H](CC(C)C)NC(=O)[C@H](CC(C)C)NC(=O)[C@@H]1CCCN1C(=O)[C@@H](NC(=O)[C@H](CC(=O)O)NC(=O)[C@@H](NC(=O)[C@H](CO)NC(=O)[C@H](CC(C)C)NC(=O)[C@H](CO)NC(=O)[C@@H]1CCCN1C(=O)[C@H](CC(N)=O)NC(=O)[C@@H](N)CC(=O)O)[C@@H](C)CC)C(C)C)[C@@H](C)O)[C@@H](C)O)C(=O)N[C@@H](Cc1ccccc1)C(=O)N[C@@H](C)C(=O)N[C@@H](CCCNC(=N)N)C(=O)N[C@H](C(N)=O)C(C)C` [compound 384] (H-DNPSLSIDVPLLLLRTLLELEKTQSQRERAEQNARIFARV-NH2; N-terminus assumed): the Emax on CRF2R was 97.3%; on CRF1R, 70.3%.
Consider `CC[C@H](C)[C@H](NC(=O)[C@H](CCCNC(=N)N)NC(=O)[C@H](C)NC(=O)[C@H](CC(N)=O)NC(=O)[C@H](CCC(N)=O)NC(=O)[C@H](CCC(=O)O)NC(=O)[C@H](C)NC(=O)[C@H](CCCNC(=N)N)NC(=O)[C@H](CCC(=O)O)NC(=O)[C@H](CCCNC(=N)N)NC(=O)[C@H](CCC(N)=O)NC(=O)[C@H](CO)NC(=O)[C@H](CCC(N)=O)NC(=O)[C@@H](NC(=O)[C@H](CCCCN)NC(=O)[C@H](CCC(=O)O)NC(=O)[C@H](CC(C)C)NC(=O)[C@H](CCC(=O)O)NC(=O)[C@H](CC(C)C)NC(=O)[C@H](CC(C)C)NC(=O)[C@@H](NC(=O)[C@H](CCCNC(=N)N)NC(=O)[C@H](CC(C)C)NC(=O)[C@H](CC(C)C)NC(=O)[C@H](Cc1ccccc1)NC(=O)[C@H](CC(C)C)NC(=O)[C@@H]1CCCN1C(=O)[C@@H](NC(=O)[C@H](CC(=O)O)NC(=O)[C@@H](NC(=O)[C@H](CO)NC(=O)[C@H](CC(C)C)NC(=O)[C@H](CO)NC(=O)[C@@H]1CCCN1C(=O)[C@H](CC(N)=O)NC(=O)[C@@H](N)CC(=O)O)[C@@H](C)CC)C(C)C)[C@@H](C)O)[C@@H](C)O)C(=O)N[C@@H](Cc1ccccc1)C(=O)N[C@@H](C)C(=O)N[C@@H](CCCNC(=N)N)C(=O)N[C@H](C(N)=O)C(C)C` [compound 385] (H-DNPSLSIDVPLFLLRTLLELEKTQSQRERAEQNARIFARV-NH2; N-terminus assumed), for which, on CRF2R, a half-maximal response (EC50) required 10.3 nM and the Emax was found to be 100%. Moreover, at CRF1R, the EC50 was at least 1000 nM and the Emax worked out at 46%.
Consider `CC[C@H](C)[C@H](NC(=O)[C@H](CCCNC(=N)N)NC(=O)[C@H](C)NC(=O)[C@H](CC(N)=O)NC(=O)[C@H](CCC(N)=O)NC(=O)[C@H](CCC(=O)O)NC(=O)[C@H](C)NC(=O)[C@H](CCCNC(=N)N)NC(=O)[C@H](CCC(=O)O)NC(=O)[C@H](CCCNC(=N)N)NC(=O)[C@H](CCC(N)=O)NC(=O)[C@H](CO)NC(=O)[C@H](CCC(N)=O)NC(=O)[C@@H](NC(=O)[C@H](CCCCN)NC(=O)[C@H](CCC(=O)O)NC(=O)[C@H](CC(C)C)NC(=O)[C@H](CCC(=O)O)NC(=O)[C@H](CC(C)C)NC(=O)[C@H](CC(C)C)NC(=O)[C@@H](NC(=O)[C@H](CCCNC(=N)N)NC(=O)[C@H](CC(C)C)NC(=O)[C@H](CC(C)C)NC(=O)[C@H](Cc1ccccc1)NC(=O)[C@H](Cc1ccccc1)NC(=O)[C@@H]1CCCN1C(=O)[C@@H](NC(=O)[C@H](CC(=O)O)NC(=O)[C@@H](NC(=O)[C@H](CO)NC(=O)[C@H](CC(C)C)NC(=O)[C@H](CO)NC(=O)[C@@H]1CCCN1C(=O)[C@H](CC(N)=O)NC(=O)[C@@H](N)CC(=O)O)[C@@H](C)CC)C(C)C)[C@@H](C)O)[C@@H](C)O)C(=O)N[C@@H](Cc1ccccc1)C(=O)N[C@@H](C)C(=O)N[C@@H](CCCNC(=N)N)C(=O)N[C@H](C(N)=O)C(C)C` [compound 386] (H-DNPSLSIDVPFFLLRTLLELEKTQSQRERAEQNARIFARV-NH2; N-terminus assumed), for which the concentration for a half-maximal effect (EC50) was 8.7 nM on CRF2R (read-out: CRF2R EC50) and at least 1000 nM at CRF1R (read-out: CRF1R EC50). In addition, the maximal effect (Emax) on CRF2R was determined as 96%; at CRF1R, 78.2%.
The like results for `CC[C@H](C)[C@H](NC(=O)[C@H](CCCNC(=N)N)NC(=O)[C@H](C)NC(=O)[C@H](CC(N)=O)NC(=O)[C@H](CCC(N)=O)NC(=O)[C@H](CCC(=O)O)NC(=O)[C@H](C)NC(=O)[C@H](CCCNC(=N)N)NC(=O)[C@H](CCC(=O)O)NC(=O)[C@H](CCCNC(=N)N)NC(=O)[C@H](CCC(N)=O)NC(=O)[C@H](CO)NC(=O)[C@H](CCC(N)=O)NC(=O)[C@@H](NC(=O)[C@H](CCCCN)NC(=O)[C@H](CCC(=O)O)NC(=O)[C@H](CC(C)C)NC(=O)[C@H](CCC(=O)O)NC(=O)[C@H](CC(C)C)NC(=O)[C@H](CC(C)C)NC(=O)[C@@H](NC(=O)[C@H](CCCNC(=N)N)NC(=O)[C@H](CC(C)C)NC(=O)[C@H](CC(C)C)NC(=O)[C@H](Cc1ccc(O)cc1)NC(=O)[C@H](CC(C)C)NC(=O)[C@@H]1CCCN1C(=O)[C@@H](NC(=O)[C@H](CC(=O)O)NC(=O)[C@@H](NC(=O)[C@H](CO)NC(=O)[C@H](CC(C)C)NC(=O)[C@H](CO)NC(=O)[C@@H]1CCCN1C(=O)[C@H](CC(N)=O)NC(=O)[C@@H](N)CC(=O)O)[C@@H](C)CC)C(C)C)[C@@H](C)O)[C@@H](C)O)C(=O)N[C@@H](Cc1ccccc1)C(=O)N[C@@H](C)C(=O)N[C@@H](CCCNC(=N)N)C(=O)N[C@H](C(N)=O)C(C)C` [compound 387] (H-DNPSLSIDVPLYLLRTLLELEKTQSQRERAEQNARIFARV-NH2; N-terminus assumed) were, in that order, 17.8 nM, at least 1000 nM, 100% and 50.1%.
Consider `CC[C@H](C)[C@H](NC(=O)[C@H](CO)NC(=O)[C@H](CC(C)C)NC(=O)[C@H](CO)NC(=O)[C@@H]1CCCN1C(=O)[C@H](CC(N)=O)NC(=O)[C@@H](N)CC(=O)O)C(=O)N[C@@H](CC(=O)O)C(=O)N[C@@H](CC(C)C)C(=O)N[C@H](C(=O)N[C@@H](Cc1ccccc1)C(=O)N[C@@H](Cc1cnc[nH]1)C(=O)N[C@@H](CC(C)C)C(=O)N[C@@H](CC(C)C)C(=O)N[C@@H](CCCNC(=N)N)C(=O)N[C@H](C(=O)N[C@@H](CC(C)C)C(=O)N[C@@H](CC(C)C)C(=O)N[C@@H](CCC(=O)O)C(=O)N[C@@H](CC(C)C)C(=O)N[C@@H](C)C(=O)N[C@@H](CCCNC(=N)N)C(=O)N[C@H](C(=O)N[C@@H](CCC(N)=O)C(=O)N[C@@H](CO)C(=O)N[C@@H](CCC(N)=O)C(=O)N[C@@H](CCCNC(=N)N)C(=O)N[C@@H](CCC(=O)O)C(=O)N[C@@H](CCCNC(=N)N)C(=O)N[C@@H](C)C(=O)N[C@@H](CCC(=O)O)C(=O)N[C@@H](CCC(N)=O)C(=O)N[C@@H](CC(N)=O)C(=O)N[C@@H](CCCNC(=N)N)C(=O)N[C@H](C(=O)N[C@H](C(=O)N[C@@H](Cc1ccccc1)C(=O)N[C@@H](CC(=O)O)C(=O)N[C@@H](CO)C(=O)N[C@H](C(N)=O)C(C)C)[C@@H](C)CC)[C@@H](C)CC)[C@@H](C)O)[C@@H](C)O)[C@@H](C)O` [hUcnI, human urocortin I, reference compound] (H-DNPSLSIDLTFHLLRTLLELARTQSQRERAEQNRIIFDSV-NH2), for which the EC50 stood at 3.52 nM on CRF2R and 9 nM at CRF1R (CRF1R EC50).

(Values after US6936585B2, “Corticotropin releasing factor 2 receptor agonists” (priority 2002, dated 2005).)
